Values of other authors in patent US7195789B2, “Non-fiber extract of psyllium with anti-tumorigenic effects and method for identifying the same” (Board of Trustees of Michigan State University, priority 2002, dated 2007).

Assays:
connexin 43 = settings: Na et al. 2000
ras protein (p21^ras) = settings: Na et al. 2000
WB-Ha-ras cells [1] = settings: WB-Ha-ras cell line; Na et al. 2000
WB-Ha-ras cells [2] = settings: WB-Ha-ras cell line; Na et al. 2000; remark: listed apart in the source

## O=C(/C=C/c1ccc(O)c(O)c1)OCCc1ccccc1 [CAPE, phenylethyl ester of caffeic acid]
Connexin 43
  expression of hyperphosphorylated Cx43: restored
Ras protein (p21^ras)
  protein level of p21^ras by Western blot: decreased
WB-Ha-ras cells [1]
  inhibition of AIG: inhibited AIG
WB-Ha-ras cells [2]
  restoration of GJIC: restored GJIC
